Experimental data: patent US6855730B2, “3-methylidenyl-2-indolinone modulators of protein kinase” (Sugen, Inc., priority 1998, dated 2005)

Molecular target: EGFR (Homo sapiens, UniProt P00533)
Assay: EGFR assay (cellular ELISA, NIH 3T3/C7 cells)
Assay type: cell-based
Design: expressed in transfected cells; host or cells: NIH 3T3/C7
Conditions: read-out: cell EGF IC50
Procedure, shortened: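 NIH 3T3/C7 cells expressing human EGFR, serum-starved (0.5% serum) ~40 h, treated with compound (1:200 of 10 mg/ml DMSO stock, 1% DMSO) then stimulated 5 min with 25 nM EGF. Lysate EGFR captured by antibody and phosphotyrosine detected by anti-Ptyr ELISA (OD 410 nm); % inhibition after negative-control subtraction.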

Sequence of EGFR (P00533 25-1210): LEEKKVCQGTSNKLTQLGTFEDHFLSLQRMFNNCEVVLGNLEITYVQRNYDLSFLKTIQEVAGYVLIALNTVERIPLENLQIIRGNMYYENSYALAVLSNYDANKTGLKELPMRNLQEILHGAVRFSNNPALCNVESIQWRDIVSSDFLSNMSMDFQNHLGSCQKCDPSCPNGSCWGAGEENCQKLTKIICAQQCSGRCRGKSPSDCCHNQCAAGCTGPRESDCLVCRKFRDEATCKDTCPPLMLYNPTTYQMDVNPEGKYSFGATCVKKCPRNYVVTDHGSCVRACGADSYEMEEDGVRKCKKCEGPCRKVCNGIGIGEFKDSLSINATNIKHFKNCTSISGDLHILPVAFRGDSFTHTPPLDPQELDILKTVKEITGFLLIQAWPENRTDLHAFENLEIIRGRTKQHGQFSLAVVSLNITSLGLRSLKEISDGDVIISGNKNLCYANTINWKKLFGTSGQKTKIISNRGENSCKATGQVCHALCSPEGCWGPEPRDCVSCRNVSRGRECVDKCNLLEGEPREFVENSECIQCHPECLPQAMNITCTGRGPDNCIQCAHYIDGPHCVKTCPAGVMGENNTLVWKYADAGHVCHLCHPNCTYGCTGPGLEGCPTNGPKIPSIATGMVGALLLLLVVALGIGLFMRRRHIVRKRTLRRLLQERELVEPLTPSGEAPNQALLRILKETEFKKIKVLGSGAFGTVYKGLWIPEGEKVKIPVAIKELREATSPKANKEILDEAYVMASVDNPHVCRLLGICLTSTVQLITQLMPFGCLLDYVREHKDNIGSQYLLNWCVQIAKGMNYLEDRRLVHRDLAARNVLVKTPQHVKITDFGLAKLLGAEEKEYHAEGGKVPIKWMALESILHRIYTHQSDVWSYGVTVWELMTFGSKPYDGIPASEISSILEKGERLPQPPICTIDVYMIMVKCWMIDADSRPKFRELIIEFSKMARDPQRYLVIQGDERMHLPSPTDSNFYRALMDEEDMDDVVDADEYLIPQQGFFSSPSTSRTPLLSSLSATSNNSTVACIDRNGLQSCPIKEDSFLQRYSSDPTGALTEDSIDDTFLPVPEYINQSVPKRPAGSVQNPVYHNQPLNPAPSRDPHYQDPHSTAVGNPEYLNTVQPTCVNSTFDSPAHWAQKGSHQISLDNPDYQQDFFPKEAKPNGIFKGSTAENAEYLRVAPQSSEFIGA

IC50 [µM]	Compound
> 100	CNC(=O)CCc1c(/C=C2\C(=O)Nc3ccccc32)[nH]c2c1CCCC2 [Example 201, N-Methyl-3-[2-(2-oxo-1,2-dihydroindol-3-ylidenemethyl)-4,5,6,7-tetrahydro-1H-indol-3-yl]-propionamide]
> 100	Cc1c[nH]c(/C=C2\C(=O)Nc3ccc(Cl)cc32)c1CCC(=O)O [Example 216, 3-[2-(5-Chloro-2-oxo-1,2-dihydroindol-3-ylidenemethyl)-4-methyl-1H-pyrrol-3-yl]-propionic acid]
> 100	O=C(CCc1c(/C=C2\C(=O)Nc3ccccc32)[nH]c2c1CCCC2)NCCN1CCOCC1 [Example 202, N-(2-Morpholin-4-ylethyl)-3-[2-(2-oxo-1,2-dihydroindol-3-ylidenemethyl)-4,5,6,7-tetrahydro-1H-indol-3-yl]-propionamide]
> 100	O=C1Nc2ccccc2/C1=C/c1[nH]c2c(c1CCC(=O)N1CCOCC1)CCCC2 [Example 200, 3-[3-(3-Morpholin-4-yl-3-oxopropyl)-4,5,6,7-tetrahydro-1H-indol-2-ylmethylene]-1,3-dihydroindol-2-one]
> 12.5	O=C(O)CCc1c(/C=C2\C(=O)Nc3ncccc32)[nH]c2c1CCCC2 [Example 203, 3-[2-(2-Oxo-1,2-dihydropyrrolo[2,3-b]pyridin-3-ylidenemethyl)-4,5,6,7-tetrahydro-1H-indol-3-yl]-propionic acid]
> 100	COc1ccc2c(c1)/C(=C/c1[nH]cc(C)c1CCC(=O)O)C(=O)N2 [Example 222, 3-[2-(5-Methoxy-2-oxo-1,2-dihydroindol-3-ylidenemethyl)-4-methyl-1H-pyrrol-3-yl]-propionic acid]
> 100	COc1cccc(-c2ccc3c(c2)NC(=O)/C3=C\c2[nH]c3c(c2CCC(=O)O)CCCC3)c1 [Example 204, 3-{2-[6-(3-Methoxyphenyl)-2-oxo-1,2-dihydro-indol-3-ylidenemethyl]-4,5,6,7-tetrahydro-1H-indol-3-yl}-propionic acid]
> 100	O=C(O)CCc1ccccc1/C=C1/C(=O)Nc2ccccc21 [Example 214, 3-[2-(2-Oxo-1,2-dihydroindol-3-ylidenemethyl)-phenyl]-propionic acid]
> 100	CC(C)NS(=O)(=O)c1ccc2c(c1)C(=Cc1[nH]c3c(c1CCC(=O)O)CCCC3)C(=O)N2 [Example 208, 3-[2-(5-Isopropylaminosulfonyl-2-oxo-1,2-dihydroindol-3-ylidenemethyl)-4,5,6,7-tetrahydro-1H-indol-3-yl]-propionic acid]
> 100	COc1ccc2c(c1)NC(=O)/C2=C\c1[nH]cc(C)c1CCC(=O)O [Example 217, 3-[2-(6-Methoxy-2-oxo-1,2-dihydroindol-3-ylidenemethyl)-4-methyl-1H-pyrrol-3-yl]-propionic acid]

Continued, compound first:

Compound	IC50 [µM]
CNS(=O)(=O)c1ccc2c(c1)/C(=C/c1cc3ccccc3[nH]1)C(=O)N2 [Example 173, 3-(1H-Indol-2-ylmethylene)-2-oxo-2,3-dihydro-1H-indole-5-sulfonic acid methylamide]	> 100
Cc1[nH]c2ccccc2c1/C=C1\C(=O)Nc2ccc(C(=O)O)cc21 [Example 182, 3-(2-Methyl-1H-indol-3-ylmethylene)-2-oxo-2,3-dihydro-1H-indole-5-carboxylic acid]	> 100
Nc1ccc2c(c1)/C(=C/c1ccc3[nH]ccc3c1)C(=O)N2 [Example 179, 5-Amino-3-(1H-indol-5-ylmethylene)-1,3-dihydro-indol-2-one]	> 100
CCOC(=O)c1c(C)[nH]c(/C=C2\C(=O)Nc3ccc(Br)cc32)c1CCC(=O)O [Compound 114, 5-(5-Bromo-2-oxo-1,2-dihydroindol-3-ylidenemethyl)-4-(2-carboxyethyl)-2-methyl-1H-pyrrole-3-carboxylic acid ethyl ester]	> 100
Cc1[nH]c2ccccc2c1/C=C1\C(=O)Nc2ccc(N)cc21 [Example 187, 5-Amino-3-(2-methyl-1H-indol-3-ylmethylene)-1,3-dihydroindol-2-one]	> 100
CN(C)C(=O)CCc1c(/C=C2\C(=O)Nc3ccccc32)[nH]c2c1CCCC2 [Example 197, N,N-Dimethyl-3-[2-(2-oxo-1,2-dihydroindol-3-ylidenemethyl)-4,5,6,7-tetrahydro-1H-indol-3-yl]-propionamide]	> 100
O=C1Nc2ccc(C(=O)O)cc2/C1=C/c1ccc2[nH]ccc2c1 [Example 177, 3-(1H-Indol-5-ylmethylene)-2-oxo-2,3-dihydro-1H-indole-5-carboxylic acid]	> 100
O=C(O)CCc1c(/C=C2\C(=O)Nc3cc(Cl)ccc32)[nH]c2c1CCCC2 [Example 195, 3-[2-(6-Chloro-2-oxo-1,2-dihydroindol-3-ylidenemethyl)-4,5,6,7-tetrahydro-1H-indol-3-yl]-propionic acid]	> 100
NC(=O)CCc1c(/C=C2\C(=O)Nc3ccccc32)[nH]c2c1CCCC2 [Example 199, 3-[2-(2-Oxo-1,2-dihydroindol-3-ylidenemethyl)-4,5,6,7-tetrahydro-1H-indol-3-yl]-propionamide]	> 100
NS(=O)(=O)c1ccc2c(c1)/C(=C/c1c[nH]c3ccccc13)C(=O)N2 [Example 172, 3-(1H-Indol-3-ylmethylene)-2-oxo-2,3-dihydro-1H-indole-5-sulfonic acid amide]	> 100
Cc1c(/C=C2\C(=O)Nc3ccc(N)cc32)[nH]c2ccccc12 [Example 180, 5-Amino-3-(3-methyl-1H-indol-2-ylmethylene)-1,3-dihydroindol-2-one]	> 100
O=C1Nc2ccc(C(=O)O)cc2/C1=C/c1c[nH]c2ccccc12 [Example 174, 3-(1H-Indol-3-ylmethylene)-2-oxo-2,3-dihydro-1H-indole-5-carboxylic acid]	> 100
O=C(O)CCc1c(/C=C2\C(=O)Nc3ccc(Cl)cc32)[nH]c2c1CCCC2 [Example 191, 3-[2-(5-Chloro-2-oxo-1,2-dihydroindol-3-ylidenemethyl)-4,5,6,7-tetrahydro-1H-indol-3-yl]-propionic acid]	> 100
Cc1c[nH]c(/C=C2\C(=O)Nc3ccccc32)c1CCC(=O)O [Example 215, 3-[4-Methyl-2-(2-oxo-1,2-dihydroindol-3-ylidenemethyl)-1H-pyrrol-3-yl]-propionic acid]	> 100
Cc1cc(CCC(=O)O)c(/C=C2\C(=O)Nc3ccc(Br)cc32)[nH]1 [Compound 116, 3-[2-(5-Bromo-2-oxo-1,2-dihydroindol-3-ylidenemethyl)-5-methyl-1H-pyrrol-3-yl]-propionic acid]	> 100
COc1c(C(C)C)cc(/C=C2/C(=O)Nc3ccccc32)cc1C(C)C [Example 1, 3-(3,5-Diisopropyl-4-methoxybenzylidene)-1,3-dihydroindol-2-one]	45.7
COc1c(C(C)C)cc(/C=C2/C(=O)Nc3ccc(Cl)cc32)cc1C(C)C [Example 2, 5-Chloro-3-(3,5-diisopropyl-4-methoxybenzylidene)-1,3-dihydroindol-2-one]	> 100
CN(C)CCCc1c(/C=C2\C(=O)Nc3ccccc32)[nH]c2c1CCCC2 [Example 198, 3-[3-(3-Dimethylaminopropyl)-4,5,6,7-tetrahydro-1H-indol-2-ylmethylene]-1,3-dihydroindol-2-one]	> 100
Cc1c[nH]c(C=C2C(=O)Nc3cc(Cl)ccc32)c1CCC(=O)O [Example 219, 3-[2-(6-Chloro-2-oxo-1,2-dihydroindol-3-ylidenemethyl)-4-methyl-1H-pyrrol-3-yl]-propionic acid]	> 100
O=C1Nc2ccc(N=Cc3cc4ccccc4[nH]3)cc2C1=Cc1cc2ccccc2[nH]1 [Example 171, 3-(1H-indol-2-ylmethylene)-5-[(1H-indol-2-ylmethylene)-amino]-1,3-dihydroindol-2-one]	> 100
